Results on five compounds are retold here after ChEMBL document CHEMBL1142046 (Bioorg Med Chem Lett, 2005).

Experiment [1] has as its system Vero. Nature of the experiment: Minimum cytotoxic compound concentration to induce microscopically detectable alteration of cell morphology, using Vero cell line. Type of experiment: functional, Chlorocebus sabaeus.
Experiment [2] has as its system MRC5. The experiment is described as follows: Cytotoxic compound concentration to reduce neutral red uptake by 50% using MRC-5 cell line. It counts as functional, Homo sapiens.
Experiment [3] has as its system MRC5. The experiment is described as follows: Compound concentration to reduce virus plague formation by 50% tested against human cytomegalovirus laboratory strains P8 using MRC-5 cell line. Type of experiment: functional, cell-based.
In experiment [4] the test system is Vero. The experiment is described as follows: Compound concentration to reduce virus cytopathic effect by 50% tested against herpes simplex […] using Vero cell line. It counts as functional, cell-based. To be noted: Chlorocebus sabaeus.
Experiment [5] deals with Vero. The experiment is described as follows: Compound concentration to reduce virus cytopathic effect by 50% tested against herpes simplex virus-1(KOS) using Vero cell line. Type of experiment: functional, cell-based. Conditions: Chlorocebus sabaeus. (Cytopathic effects are the visible damage that an infection or toxin causes in cultured cells.)
Experiment [6] concerns HEL. Nature of the experiment: Compound concentration to reduce virus plague formation by 50% tested against human cytomegalovirus laboratory strains Davis using HEL cell line. It counts as functional, cell-based.
Experiment [7] concerns MRC5. Nature of the experiment: Compound concentration to reduce virus plague formation by 50% tested against human cytomegalovirus laboratory strains Ad169 using MRC-5 cell line. It counts as functional, cell-based.

≈ marks a conversion by molar mass, not a printed value. Bounds are passed on as bounds.

Turning to `Nc1nc2c(ncn2COC(CO)CO)c(=O)[nH]1` [GANCICLOVIR], the “minimum cytotoxic concentration (MCC)” value in experiment [1] is greater than 100 µg/mL. This compound also registered a CC50% in experiment [2] greater than 1000 µg/mL. Further, the half-inhibitory concentration (IC50) was found to be 1.2 µg/mL (≈ 4.7 µM) in experiment [3]; 1.22 µg/mL (≈ 4.78 µM) in experiment [4]; 1.27 µg/mL (≈ 4.99 µM) in experiment [5]; 2.7 µg/mL (≈ 10.6 µM) in experiment [6]; 2.2 µg/mL (≈ 8.62 µM) in experiment [7].

Regarding `O=C1NCc2ccccc2OCC/C=C/c2cncc3ccc1nc23`, in experiment [1], the “minimum cytotoxic concentration (MCC)” value came to 6 µg/mL. Moreover, the CC50% in experiment [2] amounted to 1.8 µg/mL (≈ 5.43 µM). Moreover, the IC50 in experiment [3] was 0.0052 µg/mL (≈ 0.0157 µM); in experiment [4], 0.009 µg/mL (≈ 0.0272 µM); in experiment [5], 0.391 µg/mL (≈ 1.18 µM); in experiment [6] it was less than 0.0015 µg/mL; in experiment [7], 0.0006 µg/mL (≈ 0.00181 µM).

With `Cc1cncc2ccc(C(=O)NCc3ccccc3OC(C)C)nc12`, the CC50% in experiment [2] came to 2.4 µg/mL (≈ 7.16 µM). Besides, the half-inhibitory concentration (IC50) in experiment [3] is 0.13 µg/mL (≈ 0.388 µM); in experiment [7], 0.09 µg/mL (≈ 0.268 µM).

As for `O=C1NCc2ccccc2OCCC/C=C/c2cncc3ccc1nc23`, the “minimum cytotoxic concentration (MCC)” value in experiment [1] was 25 µg/mL. For the same compound, in experiment [2], the CC50% came out at 0.2 µg/mL (≈ 0.579 µM). Besides, the IC50 in experiment [4] amounted to 0.004 µg/mL (≈ 0.0116 µM); in experiment [5], 0.098 µg/mL (≈ 0.284 µM); in experiment [6], 0.003 µg/mL (≈ 0.00869 µM).

With `Nc1ccn(C[C@@H](CO)OCP(=O)(O)O)c(=O)n1.O.O` [CIDOFOVIR], the “minimum cytotoxic concentration (MCC)” value in experiment [1] was greater than 100 µg/mL. Further, the results for the IC50 in experiment [4] and in experiment [5] were 1.28 µg/mL and 3.94 µg/mL, respectively.

The term IC50 denotes the concentration at which inhibition is half-maximal. Read a low IC50 as greater potency in that assay.
